Read-outs that look alike come from different tables or passages of the source. *1 amine or outer side, *2 acyl side, *3 side chain or, on linkers, in order; H or OH if unused. Where a SMILES comes first, the peptide text is derived from it. [ ]: non-standard residue; d: D form. The star is where a group is joined. X4 = O=C(CC[C@H](N[*:1])C(=O)[*:2])C(=O)NC1CC1; Isonicotinoyl(3-COOH) = O=C(O)c1cnccc1C(=O)*; X5 = NC(=O)C(=O)CC[C@H](N[*:1])C(=O)[*:2]; Pro(4-oxo) = O=C1CN[C@H](C(=O)O)C1; Chg = N[C@H](C(=O)O)C1CCCCC1; Tle = CC(C)(C)[C@H](N)C(=O)O; Nle = CCCC[C@H](N)C(=O)O

Common to all, as to assay type: biochemical
For experiment [1], the target named is T1, recombinant human factor XIII A-subunit (rhFXIII-A, plasma transglutaminase) (Homo sapiens, UniProt P00488).
T1 construct: His6; purchased Zedira 1027 (so in the source); T027)
T1 sequence (P00488 39-732 limits assumed): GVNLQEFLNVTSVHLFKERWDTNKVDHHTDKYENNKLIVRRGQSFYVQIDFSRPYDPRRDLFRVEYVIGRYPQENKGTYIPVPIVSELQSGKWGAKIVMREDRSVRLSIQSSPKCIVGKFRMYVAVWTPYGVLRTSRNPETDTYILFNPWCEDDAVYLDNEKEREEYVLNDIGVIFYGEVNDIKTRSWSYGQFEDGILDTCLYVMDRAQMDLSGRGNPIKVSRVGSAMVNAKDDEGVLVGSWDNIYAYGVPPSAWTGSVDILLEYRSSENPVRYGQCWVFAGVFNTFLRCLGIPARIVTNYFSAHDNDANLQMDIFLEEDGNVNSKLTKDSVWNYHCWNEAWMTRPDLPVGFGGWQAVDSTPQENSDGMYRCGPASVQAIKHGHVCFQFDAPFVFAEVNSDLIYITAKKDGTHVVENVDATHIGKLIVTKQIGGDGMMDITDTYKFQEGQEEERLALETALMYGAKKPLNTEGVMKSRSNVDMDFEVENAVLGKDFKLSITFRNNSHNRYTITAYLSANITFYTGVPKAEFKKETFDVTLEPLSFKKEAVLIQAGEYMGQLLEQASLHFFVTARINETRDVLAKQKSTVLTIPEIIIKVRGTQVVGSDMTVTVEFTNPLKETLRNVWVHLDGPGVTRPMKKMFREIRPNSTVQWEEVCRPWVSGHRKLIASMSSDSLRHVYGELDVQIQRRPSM
The experiment can be described thus: Inhibition of rec. human coagulation factor XIII (fluorescence, Abz-NE(CAD-DNP)EQVSPLILLK-OH). How it is done: Method for Inhibition Studies of Rec. Human Coagulation Factor XIII (Plasma Transglutaminase, rhFXIII-A)
(§1) 50 μg lyophilized His-tagged recombinant human factor XIII A-subunit (His6-rhFXIII, Zedira product 1027) is reconstituted in H2O (volume depends on original volume before lyophilization) resulting in a buffer containing 20 mM Tris-HCl, 150 mM NaCl, 1 mM EDTA, 1 mM DTT, 189 mg/ml maltodextrin, pH=7.5. The rhFXIII stock solution is diluted in buffer (50 mM Tris-HCl, 7.5 mM CaCl2, 150 mM NaCl, pH=7.4) to give a working solution of 59 U/ml (based on the amine-incorporation activity measured using transglutaminase activity assay #1036 (Zedira GmbH), described below).
(§2) A 10 mM inhibitor stock solution is prepared in DMSO, and from this a serial 1:2-fold dilution series is prepared also in DMSO. Each of the initial dilutions is subsequently diluted 1:50-fold with buffer (50 mM Tris-HCl, 7.5 mM CaCl2, 150 mM NaCl, pH=7.4) to yield the final working dilutions containing 2% (v/v) DMSO.
(§3) 15 μl of inhibitor working dilution are added per well of a 96 well microtiter plate. As control, 15 μl of a 2% (v/v) DMSO solution prepared using the buffer mentioned above are added per well.
(§4) 480 μl of His6-rhFXIII working solution and 120 μl human alpha thrombin (0.5 NIH units/μl) are added to 10.8 ml assay buffer (50 mM Tris-HCl, 7.5 mM CaCl2, 150 mM NaCl, 5 mM DTT, 13.4 mM glycine methylester, 50 μM Abz-NE(CAD-DNP)EQVSPLILLK-OH, (Zedira product A101; patent No.: EP 1781807B1), pH=7.4). From this master-mix solution, 285 μl are added per well containing the inhibitor. Increase in fluorescence is measured using […] and λem=418 nm at 37° C. for 35 min. A slope of the increase in fluorescence between 20 and 30 min is calculated for determination of the IC50 value (inhibitor concentration at which 50% of the initial FXIII activity is blocked).
(§5) Analysis of enzymatic activity is performed by calculation of the slope of an increase in fluorescence intensity. IC50 values are calculated by plotting the enzymatic activity (as percentage from control containing 2% DMSO instead of inhibitor) against the inhibitor concentration. IC50 is defined as the inhibitor concentration blocking 50%) of initial enzyme activity.

Experiment [2] has as its target T2, TG2 (Homo sapiens, UniProt P21980).
T2 sequence (P21980 1-687): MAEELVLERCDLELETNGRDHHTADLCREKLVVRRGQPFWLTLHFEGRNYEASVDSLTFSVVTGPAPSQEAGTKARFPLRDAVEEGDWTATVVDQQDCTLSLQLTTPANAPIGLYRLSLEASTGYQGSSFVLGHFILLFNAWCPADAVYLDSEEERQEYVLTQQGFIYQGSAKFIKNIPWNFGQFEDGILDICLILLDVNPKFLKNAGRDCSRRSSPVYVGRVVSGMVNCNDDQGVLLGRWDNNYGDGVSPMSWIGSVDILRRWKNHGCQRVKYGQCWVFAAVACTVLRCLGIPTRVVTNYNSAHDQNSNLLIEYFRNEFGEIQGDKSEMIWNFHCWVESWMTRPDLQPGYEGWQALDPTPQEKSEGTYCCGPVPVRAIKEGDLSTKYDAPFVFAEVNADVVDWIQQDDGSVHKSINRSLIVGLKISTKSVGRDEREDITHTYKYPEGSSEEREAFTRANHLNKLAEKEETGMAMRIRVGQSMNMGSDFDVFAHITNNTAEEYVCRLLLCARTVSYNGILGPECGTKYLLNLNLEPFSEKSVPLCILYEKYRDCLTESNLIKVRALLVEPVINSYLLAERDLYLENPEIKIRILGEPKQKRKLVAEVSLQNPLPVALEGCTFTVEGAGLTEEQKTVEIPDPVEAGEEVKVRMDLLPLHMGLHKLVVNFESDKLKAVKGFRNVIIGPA
The experiment can be described thus: FXIII assay format using TG2 instead of FXIII (selectivity of FXIIIa blockers). How it is done: as §1, §2, §3, §4
This assay was also used to determine selectivity of inhibitors preferentially blocking FXIIIa by using TG2 instead of FXIII.
as §5

Experiment [3] has as its target T3, recombinant human tissue transglutaminase (rhTG2) (Homo sapiens, UniProt P21980).
T3 construct: purchased Zedira 1022 (so in the source); T022)
T3 sequence (P21980 1-687): T2 sequence (P21980 1-687)
As to the kind of experiment: Inhibition of rec. human tissue transglutaminase (fluorescence, Abz-APE(CAD-DNP)QEA-OH). The following applies: Table 1, TG2 inhibitors. An outline of the steps:
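His6-rhTG2 in a master mix (50 mM Tris-HCl pH 7.4, 7.5 mM CaCl2, 150 mM NaCl, 5 mM DTT, 13.4 mM glycine methylester, 50 μM Abz-APE(CAD-DNP)QEA-OH) was added to serially diluted inhibitor. Fluorescence (ex 313/em 418 nm) was followed at 37 °C for 20 min. IC50 came from the 10–20 min slope relative to the 2% DMSO control.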

Where [4] appears, read: Table 1, selectivity with respect to FXIII, read-out: IC50 FXIII.
Where [5] appears, read: Table 3, FXIII inhibitors, read-out: IC50 FXIII.

As to `CC(C)(C)[C@H](NC(=O)[C@H](CCC(=O)C(N)=O)NC(=O)c1cnc(O)c([N+](=O)[O-])c1)C(=O)N1CCCCC1C(=O)N[C@H](C(=O)N[C@H](C(N)=O)C1CCCCC1)C1CCCCC1` (stereo in doubt) [Compound E09, (S)—N1-((S)-1-((R)-2-((S)-2-((S)-2-amino-1-cyclohexyl-2-oxoethylamino)-1-cyclohexyl-2-oxoethylcarbamoyl)piperidin-1-yl)-3,3-dimethyl-1-oxobutan-2-yl)-2-(6-hydroxy-5-nitronicotinamido)-5-oxohexanediamide], the half-inhibitory concentration (IC50) was determined as 150 nM in experiment [1] and 100 nM in experiment [2].

For `COC(=O)[C@H](CC(C)C)NC(=O)[C@@H]1CCCN1C(=O)[C@@H](NC(=O)[C@H](CCC(=O)C(N)=O)NC(C)=O)C(C)C` [Compound E01, (S)-methyl 2-((S)-1-((S)-2-((S)-2-acetamido-6-amino-5,6-dioxohexanamido)-3-methylbutanoyl)pyrrolidine-2-carboxamido)-4-methylpentanoate], the results for the concentration for half-maximal inhibition (IC50) in experiment [3] and in experiment [1] (setting [4]) were 600 nM and greater than 100000 nM, respectively.

On to `CC[C@@H](C)[C@H](NC(=O)[C@H](CCC(N)=O)NC(=O)[C@H](CCC(=O)C(N)=O)NC(C)=O)C(=O)N[C@H](C(N)=O)C(C)C` [Compound E03, (S)-2-acetamido-N1-((S)-5-amino-1-((2S,3R)-1-((S)-1-amino-3-methyl-1-oxobutan-2-ylamino)-3-methyl-1-oxopentan-2-ylamino)-1,5-dioxopentan-2-yl)-5-oxohexanediamide], for which the half-inhibitory concentration (IC50) is 750 nM in experiment [3] and greater than 100000 nM in experiment [1] (setting [4]).

As for `CCC(CC)CNC(=O)Cn1cccc(NC(=O)[C@H](CCC(=O)C(N)=O)NC(=O)c2cncn2C)c1=O` [Compound E04, (S)—N1-(1-(2-(2-ethylbutylamino)-2-oxoethyl)-2-oxo-1,2-dihydropyridin-3-yl)-2-(1-methyl-1H-imidazole-5-carboxamido)-5-oxohexanediamide], the figures for the IC50 in experiment [3] and in experiment [1] (setting [4]) were 100 nM and greater than 100000 nM, respectively.

`Cc1nc(Br)sc1C(=O)N[C@@H](CCC(=O)C(N)=O)C(=O)Nc1cccn(CC(=O)NCCC(C)C)c1=O` [Compound E05, (S)-2-(2-bromo-4-methylthiazole-5-carboxamido)-N1-(1-(2-(isopentylamino)-2-oxoethyl)-2-oxo-1,2-dihydropyridin-3-yl)-5-oxohexanediamide]: the IC50 is 150 nM in experiment [3] and greater than 100000 nM in experiment [1] (setting [4]).

Turning to `CCCC[C@H](NC(=O)[C@H](CCC(=O)C(N)=O)NC(=O)[C@H](CC(=O)O)NC(C)=O)C(=O)N[C@@H](CCCC)C(=O)N[C@@H](CC(C)C)C(=O)N1CCC[C@H]1C(=O)N[C@@H](Cc1c[nH]c2ccccc12)C(=O)N1CCC[C@H]1C(=O)O` [Compound E08, (S)-1-((S)-2-((S)-1-((4R,7S,10S,13S,16S)-7-(4-amino-3,4-dioxobutyl)-10, -dibutyl-4-(carboxymethyl)-18-methyl-2,5,8,11,14-pentaoxo-3,6,9,12,15-pentaazanonadecanecarbonyl)pyrrolidine-2-carboxamido)-3-(1H-indol-3-yl)propanoyl)pyrrolidine-2-carboxylic acid] (Ac-D[X5][Nle][Nle]LPWP-OH), the IC50 was 150 nM in experiment [1] (setting [5]) and 100 nM in experiment [2] (Table 3, selectivity with respect to TG2, read-out: IC50 TG2).

With `CCCC(NC(=O)C1C2C(CN1C(=O)C(CC1CC1)NC(=O)C(CCC(=O)C(N)=O)NC(=O)c1cc(C(=O)O)cc([N+](=O)[O-])c1)C2(C)C)C(=O)N1CCCC1(C)C(=O)NC(C)COc1c(C)cccc1C` [Compound E10, 3-((2S)-6-amino-1-((2S)-3-cyclopropyl-1-((1R,2S)-2-((2S)-1-((2S)-2-(1-(2,6-dimethylphenoxy)propan-2-ylcarbamoyl)-2-methylpyrrolidin-1-yl)-1-oxopentan-2-ylcarbamoyl)-6,6-dimethyl-3-azabicyclo[3.1.0]hexan-3-yl)-1-oxopropan-2-ylamino)-1,5,6-trioxonexan-2-ylcarbamoyl)-5-nitrobenzoic acid], the IC50 in experiment [1] stood at 150 nM; in experiment [2], 100 nM.

Consider `CCC(CC)CNC(=O)Cn1cccc(NC(=O)[C@H](CCC(=O)C(=O)NC)NC(=O)c2cncn2C)c1=O` [Compound E16, (S)—N1-(1-(2-(2-ethylbutylamino)-2-oxoethyl)-2-oxo-1,2-dihydropyridin-3-yl)-N6-methyl-2-(1-methyl-1H-imidazole-5-carboxamido)-5-oxonexanediamide], for which the results for the IC50 in experiment [3] and in experiment [1] (setting [4]) were 50 nM and greater than 100000 nM, respectively.

With `CC(C)(C)[C@H](NC(=O)[C@H](CCC(=O)C(=O)NC1CC1)NC(=O)c1ccncc1C(=O)O)C(=O)N1CC(=O)C[C@H]1C(=O)N[C@H](C(=O)N[C@H](C(N)=O)C1CCCCC1)C1CCCCC1` [Compound E28, 4-((S)-1-((S)-1-((S)-2-((S)-2-((S)-2-amino-1-cyclohexyl-2-oxoethylamino)-1-cyclo-hexyl-2-oxoethylcarbamoyl)-4-oxopyrrolidin-1-yl)-3,3-dimethyl-1-oxobutan-2-yl-amino)-6-(cyclopropylamino)-1,5,6-trioxohexan-2-ylcarbamoyl)nicotinic acid] ({Isonicotinoyl(3-COOH)}-[X4][Tle][Pro(4-oxo)][Chg][Chg]-NH2), the IC50 in experiment [1] (setting [5]) is 275 nM.

For orientation: IC50 means the concentration that inhibits the measured activity by half.

The values are drawn from US11072634B2, “Inhibitors of transglutaminases” (Zedira GmbH, priority 2016, dated 2021).
